How the values were obtained:
Format in all cases: in vivo
Lucilia cuprina larvae = assay: Lucilia cuprina (48 h) test; conditions: 100 ppm, after 48 hours, treated horse meat
Description: Lucilia Cuprina (48 h) Solvent: dimethyl sulfoxide To produce a suitable preparation of active compound, 10 mg of active compound are mixed with 0.5 ml of dimethyl sulfoxide, and the concentrate is diluted with water to the desired concentration. Vessels containing horse meat treated with the active compound preparation of the desired concentration are populated with about 20 Lucilia cuprina larvae. After 48 hours, the kill in % is determined 100% means that all larvae have been killed; 0% means that no larvae have been killed.

[1] = system: greenhouse red spider mite (Tetranychus urticae); assay: Tetranychus spray test, OP-resistant (TETRUR); conditions: after 6 days, bean leaf discs
Description: Tetranychus Spray Test, OP-resistant (TETRUR)
(§1) Solvents: 78.0 parts by weight of acetone • • 1.5 parts by weight of dimethylformamide
Emulsifer: 0.5 part by weight of alkylaryl polyglycol ether
(§2) To produce a suitable preparation of active compound, 1 part by weight of active compound is mixed with the stated amounts of solvent and emulsifier, and the concentrate is diluted with emulsifier-containing water to the desired concentration.
Discs of bean leaves (Phaseolus vulgaris) which are infested by all stages of the greenhouse red spider mite (Tetranychus urticae) are sprayed with an active compound preparation of the desired concentration.
After 6 days, the effect in % is determined 100% here means that all of the spider mites have been killed; 0% means that none of the spider mites have been killed.

[2] = system: green peach aphid (Myzus persicae); assay: Myzus persicae spray test (MYZUPE); conditions: 500 g/ha, after 6 days, Chinese cabbage disks
Description: Myzus persicae Spray Test (MYZUPE) Solvents: 78 parts by weight of acetone • • 1.5 parts by weight of dimethylformamide Emulsifier: 0.5 part by weight of alkylaryl polyglycol ether To produce a suitable preparation of active compound, 1 part by weight of active compound is mixed with the stated amounts of solvent and emulsifier, and the concentrate is diluted with emulsifier-containing water to the desired concentration. Disks of Chinese cabbage (Brassica pekinensis) infested by all stages of the green peach aphid (Myzus persicae) are sprayed with an active compound formulation of the desired concentration. After 6 days, the effect in % is determined 100% here means that all of the aphids have been killed; 0% means that none of the aphids have been killed.

[3] = system: larvae of the mustard beetle (Phaedon cochleariae); assay: Phaedon cochleariae spray test (PHAECO); conditions: 500 g/ha, after 7 days, Chinese cabbage leaf disks
Description: Phaedon Cochleariae Spray Test (PHAECO)
as §1
Emulsifier: 0.5 part by weight of alkylaryl polyglycol ether
as §2
After 7 days, the effect in % is determined 100% means that all beetle larvae have been killed; 0% means that none of the beetle larvae have been killed.

Structure (SMILES)	efficacy (effect in %, spider mites killed) ([1]; 500 g/ha)	efficacy (effect in %, aphids killed) [2]	efficacy (effect in %, spider mites killed) ([1]; 100 g/ha)	also measured
Cn1nc(-c2ccc(Cl)cc2)nc1C1=C(O)C(C)(C)NC1=O [Example I-1-a1-3]	100%	–	–	efficacy (kill in %) (Lucilia cuprina larvae): 90%
CCn1nc(-c2ccc(Cl)cc2)nc1C1=C(O)C(C)(C)NC1=O [Example I-1-a1-4]	80%	80%	–	–
CC(C)n1nc(-c2ccc(Cl)cc2)nc1C1=C(O)C(C)(C)NC1=O [Example I-1-a1-9]	–	–	90%	–
COC1CCC2(CC1)NC(=O)C(c1nc(-c3ccc(F)cc3)nn1C)=C2O (centres unmarked) [Example I-1-a2-1]	100%	100%	–	–
COC1CCC2(CC1)NC(=O)C(c1nc(-c3ccc(Cl)cc3)nn1C)=C2O (centres unmarked) [Example I-1-a2-3]	100%	100%	–	–
COC1CCC2(CC1)NC(=O)C(c1nc(-c3ccccc3)nn1C)=C2O (centres unmarked) [Example I-1-a2-5]	–	100%	–	–
Cn1nc(-c2ccc(F)cc2)nc1C1=C(O)C2(CCOCC2)NC1=O [Example I-1-a3-1]	100%	–	–	–
Cn1nc(-c2ccccc2)nc1C1=C(O)C2(CCOCC2)NC1=O [Example I-1-a3-5]	–	100%	–	–
CCn1nc(-c2ccc(Cl)cc2)nc1C1=C(O)C2CCCN2C1=O (centres unmarked) [Example I-1-a4-4]	100%	–	–	–
CCCOC1CCC2(CC1)NC(=O)C(c1nc(-c3ccc(Cl)cc3)nn1C)=C2O (centres unmarked) [Example I-1-a6-3]	90%	90%	–	efficacy (effect in %, beetle larvae killed) [3]: 100%
CC1CCC2(CC1)NC(=O)C(c1nc(-c3ccc(Cl)cc3)nn1C)=C2O (centres unmarked) [Example I-1-a7-3]	90%	90%	–	–
Cn1nc(-c2ccc(Cl)cc2)nc1C1=C(O)C2(CCC(C(F)(F)F)CC2)NC1=O (centres unmarked) [Example I-1-a8-3]	100%	–	–	–
CCON1CCC2(CC1)NC(=O)C(c1nc(-c3ccc(Cl)cc3)nn1C)=C2O [Example I-1-a9-3]	–	90%	90%	–
CON1CCC2(CC1)NC(=O)C(c1nc(-c3ccc(Cl)cc3)nn1C)=C2O [Example I-1-a10-3]	–	90%	90%	–
C=CCOC1CCC2(CC1)NC(=O)C(c1nc(-c3ccc(Cl)cc3)nn1C)=C2O (centres unmarked) [Example I-1-a11-3]	–	90%	90%	–
CC1COC2(CCC3(CC2)NC(=O)C(c2nc(-c4ccc(Cl)cc4)nn2C)=C3O)OC1 (centres unmarked) [Example I-1-a13-3]	–	90%	–	–
Cn1nc(-c2ccc(Cl)cc2)nc1-c1c(O)n2n(c1=O)CCOCC2 [Example I-8-a3]	–	90%	90%	–
CCn1nc(-c2ccc(F)cc2)nc1-c1c(O)n2n(c1=O)CCOCC2 [Example I-8-a5]	–	–	90%	–
